Results published in patent US11724998B2, “PXR agonists and uses thereof for gut barrier dysfunction treatment and prevention” (Albert Einstein College of Medicine, priority 2017, dated 2023).

Legend:
AhR = target: T1, AhR (Homo sapiens, UniProt P35869); test: HTS nuclear receptor activation screen using LS180 cells (AhR); type: cell-based; conditions: data not shown
T1 sequence (P35869 11-848): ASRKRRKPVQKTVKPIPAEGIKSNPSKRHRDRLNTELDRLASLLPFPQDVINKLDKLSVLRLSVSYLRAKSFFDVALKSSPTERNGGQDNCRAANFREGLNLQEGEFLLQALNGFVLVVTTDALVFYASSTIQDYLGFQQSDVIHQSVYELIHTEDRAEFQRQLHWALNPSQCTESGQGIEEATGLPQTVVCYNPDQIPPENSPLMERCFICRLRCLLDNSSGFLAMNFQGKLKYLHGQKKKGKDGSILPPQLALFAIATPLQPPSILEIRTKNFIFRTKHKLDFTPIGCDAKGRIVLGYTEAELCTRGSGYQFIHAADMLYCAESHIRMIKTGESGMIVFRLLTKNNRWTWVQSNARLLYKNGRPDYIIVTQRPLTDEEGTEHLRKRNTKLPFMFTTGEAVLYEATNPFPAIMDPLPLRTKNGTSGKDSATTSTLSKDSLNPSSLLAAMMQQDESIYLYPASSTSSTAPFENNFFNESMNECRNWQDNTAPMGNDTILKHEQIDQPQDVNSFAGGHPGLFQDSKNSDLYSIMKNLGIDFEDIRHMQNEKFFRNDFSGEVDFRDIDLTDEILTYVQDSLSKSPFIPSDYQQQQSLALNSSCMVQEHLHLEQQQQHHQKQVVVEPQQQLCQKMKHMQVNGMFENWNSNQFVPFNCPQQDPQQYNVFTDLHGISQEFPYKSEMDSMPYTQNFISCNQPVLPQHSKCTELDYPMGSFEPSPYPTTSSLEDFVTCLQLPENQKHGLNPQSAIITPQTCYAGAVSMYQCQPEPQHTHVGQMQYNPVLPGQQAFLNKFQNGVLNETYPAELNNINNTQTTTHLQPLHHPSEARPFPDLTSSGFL

PXR = target: T2, PXR (Homo sapiens, UniProt O75469); test: PXR activation (transactivation) luciferase assay in LS180 cells; type: cell-based; set-up: co-transfecting full-length expressing human PXR plasmid (91) and p3A4 luciferase reporter (92) in LS180 or Caco-2 cells; expressed in transfected cells; host or cells: LS180
T2 sequence (O75469 1-434): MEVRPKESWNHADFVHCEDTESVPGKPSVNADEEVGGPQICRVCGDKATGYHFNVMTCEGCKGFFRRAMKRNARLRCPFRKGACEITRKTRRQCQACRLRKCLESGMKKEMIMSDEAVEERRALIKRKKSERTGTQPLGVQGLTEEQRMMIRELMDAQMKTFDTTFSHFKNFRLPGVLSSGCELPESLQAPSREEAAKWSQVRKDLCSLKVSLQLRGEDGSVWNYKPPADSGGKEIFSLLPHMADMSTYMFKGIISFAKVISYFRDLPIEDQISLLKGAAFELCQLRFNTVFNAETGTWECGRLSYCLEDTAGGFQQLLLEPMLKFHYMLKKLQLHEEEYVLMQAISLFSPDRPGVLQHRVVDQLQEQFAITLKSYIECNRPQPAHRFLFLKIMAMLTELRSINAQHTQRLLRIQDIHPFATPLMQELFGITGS
Description: FIG. 6A-6E. Activation and inhibition studies with different FKK compounds. (A) PXR activation, LS180 cells (upper), and PXR inhibition, LS180 cells, co-incubation with RIF (lower). (B) AhR activation, AZ-AHR cells (upper), and AhR inhibition, AZ-AHR cells, co-incubation with TCDD (lower). (C) GR activation, AZ-GR cells (upper), and VDR activation, IZ-VDRE cells (lower). (D) TR activation, PZ-GR cells (upper), and AR activation, AIZ-AR cells (lower). (E) Displacement of radiolabeled 9-cis-retinoic acid (RA) by FKK compounds.
Two molecules that were readily available (Ryan Scientific: FKK999 & BAS451) were purchased and tested in vitro for PXR activation using a HepG2 reporter assay. […] […]. […] In general, reporter cell lines are efficient ways to screen for PXR ligands (72). In the LS180 intestinal cell line, the PXR activation assay involves a transient transfection system using a specific PXR plasmid and reporter plasmid (CVmax % 11.2+2; CVmid % 10.8+0.1.4; Signal Window 6.2+1.1; Z′ factor 0.51+0.005).
All the synthesized compounds and intermediates were tested for their potential to activate PXR and/or AhR via luciferase assays. The PXR activation assays were performed by co-transfecting full-length expressing human PXR plasmid (91) and p3A4 luciferase reporter (92) in LS180 or Caco-2 cells. AhR activation conducted using stably co-transfected HepG2 reporter cells as previously described (93). […] With the exception of FKK6, there was no significant inhibition of TCDD-induced AhR activation. […] Independent verification of AhR activity of randomly selected compounds—FKK 5, 6 and 9—was performed in a separate laboratory (GHP). Nuclear receptor selectivity was assessed for FKK compounds for GR, ADR, TR and AR using cell-based luciferase assays previously described (93-102). There was no observed biologically significant (>2-fold) induction of nuclear receptor activity (FIG. 6C). RXR ligand displacement is only significant for FKK1 and FKK8 (FIG. 6D).

CDK5/p25 enzyme = CDK5/p25 enzyme (Homo sapiens, UniProt Q00535); test: ADP-Glo kinase assay with CDK5/p25 enzyme; type: biochemical; conditions: up to 20 μM
Sequence of CDK5/p25 enzyme (Q00535 whole entry, species assumed): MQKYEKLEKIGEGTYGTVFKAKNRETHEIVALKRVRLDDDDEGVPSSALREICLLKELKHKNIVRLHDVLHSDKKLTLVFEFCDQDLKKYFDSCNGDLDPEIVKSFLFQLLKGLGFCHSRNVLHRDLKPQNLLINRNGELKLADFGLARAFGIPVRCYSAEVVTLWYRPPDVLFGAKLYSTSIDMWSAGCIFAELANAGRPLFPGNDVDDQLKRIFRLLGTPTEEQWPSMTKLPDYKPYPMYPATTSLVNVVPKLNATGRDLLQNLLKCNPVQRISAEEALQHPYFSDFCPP
Sequence of CDK5/p25 enzyme (Q15078 99-307 partner limits assumed, species assumed): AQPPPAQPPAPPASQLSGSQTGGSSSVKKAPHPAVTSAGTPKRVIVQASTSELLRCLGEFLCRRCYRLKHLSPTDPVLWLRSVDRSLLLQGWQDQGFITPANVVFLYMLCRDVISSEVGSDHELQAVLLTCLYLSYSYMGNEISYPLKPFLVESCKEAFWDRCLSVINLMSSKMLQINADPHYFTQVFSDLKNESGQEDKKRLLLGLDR
Description: FIG. 5. ADP-Glo kinase with CDK5/p25 enzyme. Michaelis-Menton fit of RLU values across FKK5 concentrations after enzyme and time of incubation was optimized. The fit is nearly similar with one curve describing all concentration effects. Km˜0.01483; Ki˜4.656e+099; Vmax˜53380.
IPA/Indoles can have weak (˜2 fold) but important effects on the activation of other nuclear receptors (e.g., CAR, LXR) (33). […] Some receptors, specifically CAR and LXR, can act to induce liver steatosis (79, 83-86) and hepatocarcinogenesis (CAR) (80, 84, 87-89) and thus, avoiding excessive activation of these nuclear receptors in the context of PXR activation would be important. […] CDK5 (along with CDK2) are important kinases that phosphorylate and inhibit PXR activation (90). Accordingly, based on the data, it is unlikely that FKK5 activates PXR via inhibition of CDK5.

AhR activation (AhR): not AhR
EC50 (PXR): 1680 nM
Emax (PXR; read-out: Emax/Emax[rifampicin, positive control]): 128%
inhibition of CDK5/p25 enzyme (CDK5/p25 enzyme): does not inhibit
SMILES: O=C(c1ccncc1)c1cc2ccccc2n1S(=O)(=O)c1ccccc1 [FKK5]
